Assay results reported in patent US4400199A, “Thiolcarbamate compounds and their use as herbicides” (priority 1981, dated 1983).
≈ marks a conversion by molar mass, not a printed value.

system: barnyard grass; assay: Experiment 2: herbicidal effects against barnyard grass (pot test, granules); format: in vivo, Echinochloa crus-galli; settings: 150 g/10a., 2.5 leaf-stage, 25 days

SMILES	herbicidal activity (barnyard grass)
CCN(CC)C(=O)SCCCCl [Compound 10, reference compound]	5 (more than 90%)

same assay, conditions: 300 g/10a., 2.5 leaf-stage, 25 days

SMILES	herbicidal activity (barnyard grass)
CCN(CC)C(=O)SCCCCl [Compound 10, reference compound]	5 (more than 90%)

same assay, conditions: 600 g/10a., 2.5 leaf-stage, 25 days

SMILES	herbicidal activity (barnyard grass)
CCN(CC)C(=O)SCCCCl [Compound 10, reference compound]	5 (more than 90%)

system: paddy field weeds; assay: Experiment 2: herbicidal effects against paddy field weeds, overall; format: in vivo; settings: compared with Molinate (Compound 13)

SMILES	herbicidal activity (in words)
CCN(CC)C(=O)SCCCCl [Compound 10, reference compound]	excellent herbicidal activities

system: not listed separately; assay: Experiment 4: subacute toxicity to fish; format: in vivo, 2-year-old carps; settings: carp, water; 0.2 ppm; 3 weeks; read-out: Survival rate after 3 weeks
Description: (§1) With respect to the compounds according to the present invention and the comparative compounds listed in Table 4, there were conducted tests on subacute toxicity to 2-year-old carps having an average weight of 20 g.
(§2) Ten 2-year-old carps were released in each of 25-liter water tanks equipped with an air-blowing apparatus and acclimatized to the surroundings while feeding for 10 days. Water in each of the water tanks was continuously replaced with fresh water so that the residence time of water in the water tanks is 6 hours. Each test compound was added to a predetermined quantity of supply water to prepare a 0.2 ppm aqueous solution of each compound, and each of the aqueous solutions was continuously added to the water in the tank. After three weeks, the hematocrit values of all the survival carps were determined. The hematocrit value used herein is intended to mean a volume percentage of erythrocyte contained in the blood.

SMILES	survival at 504 h
CCN(CC)C(=O)SCCCCl [Compound 10, reference compound]	80%

system: carps; assay: Experiment 4: subacute toxicity to fish; format: in vivo, 2-year-old carps; settings: 0.2 ppm; 3 weeks
Description: as §1, §2

SMILES	Average Hematocrit Value of survival fish	subacute toxicity to carps (in words)	survival of carps (in words)	symptoms of anemia in carps (in words)
CCN(CC)C(=O)SCCCCl [Compound 10, reference compound]	16%	high subacute toxicity to carps	extremely low	remarkable symptons of anemia

system: broad-leaf weeds; assay: Experiment 2: herbicidal effects against broad-leaf weeds (pot test, granules); format: in vivo; settings: 150 g/10a., 25 days

SMILES	Herbicidal activity broad-leaf weeds
CCN(CC)C(=O)SCCCCl [Compound 10, reference compound]	5 (more than 90%)

same assay, conditions: 300 g/10a., 25 days

SMILES	Herbicidal activity broad-leaf weeds
CCN(CC)C(=O)SCCCCl [Compound 10, reference compound]	5 (more than 90%)

same assay, conditions: 600 g/10a., 25 days

SMILES	Herbicidal activity broad-leaf weeds
CCN(CC)C(=O)SCCCCl [Compound 10, reference compound]	5 (more than 90%)

system: rice plants; assay: not given; settings: in vivo

SMILES	phytotoxicity rice plant
CCN(CC)C(=O)SCCCCl [Compound 10, reference compound]	0 (key: 5: more than 90%; 4: 70 to 89%; 3: 50 to 69%; 2: 30 to 49%; 10 to 29%; less than 10%)

system: Hotarui (Scirpus juncoides); assay: Experiment 2: herbicidal effects against Hotarui (pot test, granules); format: in vivo; settings: 150 g/10a., 25 days

SMILES	Herbicidal activity Hotarui (Scirpus juncoides)
CCN(CC)C(=O)SCCCCl [Compound 10, reference compound]	4 (70 to 89%)

same assay, conditions: 300 g/10a., 25 days

SMILES	Herbicidal activity Hotarui (Scirpus juncoides)
CCN(CC)C(=O)SCCCCl [Compound 10, reference compound]	4 (70 to 89%)

same assay, conditions: 600 g/10a., 25 days

SMILES	Herbicidal activity Hotarui (Scirpus juncoides)
CCN(CC)C(=O)SCCCCl [Compound 10, reference compound]	5 (more than 90%)

system: rice plants; assay: Experiment 2: phytotoxicity to rice plants (pot test, granules); settings: not given

SMILES	harmful effects to rice plants (in words)
CCN(CC)C(=O)SCCCCl [Compound 10, reference compound]	without harmful effects to rice plants

same assay, conditions: 150 g/10a., 25 days

SMILES	phytotoxicity rice plant
CCN(CC)C(=O)SCCCCl [Compound 10, reference compound]	0 (less than 10%)

same assay, conditions: 300 g/10a., 25 days

SMILES	phytotoxicity rice plant
CCN(CC)C(=O)SCCCCl [Compound 10, reference compound]	0 (less than 10%)

same assay, conditions: 600 g/10a., 25 days

SMILES	phytotoxicity rice plant
CCN(CC)C(=O)SCCCCl [Compound 10, reference compound]	0 (less than 10%)

system: not listed separately; assay: Experiment 3: acute toxicity to fish; format: in vivo, Black-carp fry; settings: carp, water; 48 hrs; read-out: Median lethal concentration TLm (48hrs)
Description: With respect to the compounds according to the present invention and the comparative compounds (Compound 10, Compound 12 and Compound 13), there were conducted tests on acute toxicity to carps.
In 25-liter water tanks made of glass was charged 20 liters of water. 12 Black-carp fry were released to each of the water tanks and bred while feeding for 7 days. Then, the whole quantity of water in each of the tanks was replaced with fresh water, and feeding to the carps was stopped. After three days, a prescribed amount of 1 weight % solution of a test compound in acetone was added to water in the water tank.
The number of survival fish in each tank was counted after 24 hours, 48 hours and 96 hours, successively.
The TLm (median tolerance limit=lethal concentration 50%) was determined by the Doudorff's method (Sewage & Ind. Wastes 23 (1951) 1380-1397).

SMILES	LC50 at 48 h
CCN(CC)C(=O)SCCCCl [Compound 10, reference compound]	> 20 µg/mL

same assay, conditions: carp, water; 96 hrs; read-out: Median lethal concentration TLm (96hrs)

SMILES	LC50 at 96 h
CCN(CC)C(=O)SCCCCl [Compound 10, reference compound]	18 µg/mL (≈ 85.8 µM)

system: Mizugayatsuri (Cyperus serotinus); assay: Experiment 2: herbicidal effects against Mizugayatsuri (pot test, granules); format: in vivo; settings: 150 g/10a., 25 days

SMILES	Herbicidal activity Mizugayatsuri (Cyperus serotinus)
CCN(CC)C(=O)SCCCCl [Compound 10, reference compound]	4 (70 to 89%)

same assay, conditions: 300 g/10a., 25 days

SMILES	Herbicidal activity Mizugayatsuri (Cyperus serotinus)
CCN(CC)C(=O)SCCCCl [Compound 10, reference compound]	4 (70 to 89%)

same assay, conditions: 600 g/10a., 25 days

SMILES	Herbicidal activity Mizugayatsuri (Cyperus serotinus)
CCN(CC)C(=O)SCCCCl [Compound 10, reference compound]	5 (more than 90%)

system: barnyard grass (Echinochloa crus-galli); assay: Experiment 1: herbicidal effects against barnyard grass (pot test, emulsifiable concentrate); format: in vivo; settings: in vivo

SMILES	herbicidal activity (barnyard grass)	herbicidal activity (in words)
CCN(CC)C(=O)SCCCCl [Compound 10, reference compound]	5 (key: 5: more than 90%; 4: 70 to 89%; 3: 50 to 69%; 2: 30 to 49%; 10 to 29%; less than 10%)	sufficient herbicidal activities
